Experiment [1] concerns M. tuberculosis guaB2 cKD mutant. Format: cell-based. Particulars: increase in potency against guaB2 cKD mutant upon guaB2 silencing.
In experiment [2] the test system is M. tuberculosis SRMV2.6 (IMPDH Tyr487Cys). It is filed as cell-based, Mycobacterium tuberculosis.

Values after ≈ are worked out from the molar mass of the structure shown. Where only a bound is given, the exact number is not on record here.

Regarding `COc1cccc(CNC(=O)N2CCN(S(=O)(=O)c3cccc4cnccc34)CC2)c1` [Compound 47, 4-(isoquinolin-5-ylsulfonyl)-N-(3-methoxybenzyl)piperazine-1-carboxamide], the “Hyper-sensitivity to guaB2 cKD” value in experiment [1] was 8-fold.

Turning to `O=C(CC1CCCCC1)N1CCN(S(=O)(=O)c2cccc3cnccc23)CC1` [Compound 22, 2-Cyclohexyl-1-(4-(isoquinolin-5-ylsulfonyl)piperazin-1-yl)ethan-1-one], the “MIC90 against SRMV2.6” value in experiment [2] was greater than 250 µM. Also, in experiment [1], the “Hyper-sensitivity to guaB2 cKD” value was 16-fold.

For `O=C(NCc1ccccc1)N1CCN(S(=O)(=O)c2cccc3cnccc23)CC1` [Compound 46, N-benzyl-4-(isoquinolin-5-ylsulfonyl)piperazine-1-carboxamide], the “MIC90 against SRMV2.6” value in experiment [2] was greater than 100 µM. Further, the “Hyper-sensitivity to guaB2 cKD” value in experiment [1] is 8-fold.

Take `CC1CCCCC1C(=O)N1CCN(S(=O)(=O)c2cccc3cnccc23)CC1` (stereo not drawn) [Compound 13, [4-(isoquinoline-5-sulfonyl)piperazin-1-yl](2-methylcyclohexyl)methanone]: in experiment [2], the “MIC90 against SRMV2.6” value is greater than 250 µM. The “Hyper-sensitivity to guaB2 cKD” value in experiment [1] is on record as 16–32-fold.

For the molecule `Cc1ccccc1CNC(=O)N1CCN(S(=O)(=O)c2cccc3cnccc23)CC1` [Compound 48, 4-(isoquinolin-5-ylsulfonyl)-N-(2-methylbenzyl)piperazine-1-carboxamide], in experiment [2], the “MIC90 against SRMV2.6” value stood at 15.6 µM (≈ 6.62 µg/mL). Besides, the “Hyper-sensitivity to guaB2 cKD” value in experiment [1] is given as 16–32-fold.

Turning to `O=C(C1CCCCC1)N1CCN(S(=O)(=O)c2cccc3cnccc23)CC1` [Compound 1, Cyclohexyl[4-(isoquinoline-5-sulfonyl)piperazin-1-yl]methanone], the “MIC90 against SRMV2.6” value in experiment [2] came out at 250 µM (≈ 96.9 µg/mL). Further, the “Hyper-sensitivity to guaB2 cKD” value in experiment [1] is reported as “∼32-fold”.

Take `CC1CN(S(=O)(=O)c2cccc3cnccc23)CCN1C(=O)Nc1ccc2c(c1)OCO2` (stereo not drawn) [Compound 45, N-(benzo[d][1,3]dioxol-5-yl)-4-(isoquinolin-5-ylsulfonyl)-2-methylpiperazine-1-carboxamide]: in experiment [2], the “MIC90 against SRMV2.6” value was greater than 100 µM. In experiment [1], the “Hyper-sensitivity to guaB2 cKD” value was 8–16-fold.

For the molecule `O=C(C1CCCCCC1)N1CCN(S(=O)(=O)c2cccc3cnccc23)CC1` [Compound 14, Cycloheptyl[4-(isoquinoline-5-sulfonyl)piperazin-1-yl]methanone], the “MIC90 against SRMV2.6” value in experiment [2] was greater than 250 µM. In addition, in experiment [1], the “Hyper-sensitivity to guaB2 cKD” value is given as 16-fold.

Consider `N#Cc1cccc(NC(=O)N2CCN(S(=O)(=O)c3cccc4cnccc34)CC2)c1` [Compound 31, N-(3-cyanophenyl)-4-(isoquinolin-5-ylsulfonyl)piperazine-1-carboxamide], for which the “MIC90 against SRMV2.6” value in experiment [2] is 31.2 µM (≈ 13.2 µg/mL).

For the molecule `COc1ccc(CC(=O)N2CCN(S(=O)(=O)c3cccc4cnccc34)CC2)c(OC)c1` [Compound 27, 1-[4-(isoquinoline-5-sulfonyl)piperazin-1-yl]-2-(2,4-dimethoxyphenyl)ethan-1-one], in experiment [2], the “MIC90 against SRMV2.6” value was greater than 250 µM.

`CC1(C(=O)N2CCN(S(=O)(=O)c3cccc4cnccc34)CC2)CCCCC1` [Compound 12, [4-(isoquinoline-5-sulfonyl)piperazin-1-yl](1-methylcyclohexyl)methanone]: the “MIC90 against SRMV2.6” value in experiment [2] was greater than 250 µM.

Consider `O=C(c1cccc([N+](=O)[O-])c1)N1CCN(S(=O)(=O)c2cccc3cnccc23)CC1` [Compound 18, [4-(isoquinoline-5-sulfonyl)piperazin-1-yl](3-nitrophenyl)methanone], for which the “MIC90 against SRMV2.6” value in experiment [2] came out at 50 µM (≈ 21.3 µg/mL). Moreover, the “Hyper-sensitivity to guaB2 cKD” value in experiment [1] is listed as 8-fold.

As to `O=C(Nc1ccc(Cl)c(C(F)(F)F)c1)N1CCN(S(=O)(=O)c2cccc3cnccc23)CC1` [Compound 34, N-(4-chloro-3-(trifluoromethyl)phenyl)-4-(isoquinolin-5-ylsulfonyl)piperazine-1-carboxamide], the “MIC90 against SRMV2.6” value in experiment [2] was 50 µM (≈ 24.9 µg/mL).

On to `Cc1cccc(Cl)c1NC(=O)N1CCN(S(=O)(=O)c2cccc3cnccc23)CC1` [Compound 40, N-(2-chloro-6-methylphenyl)-4-(isoquinolin-5-ylsulfonyl)piperazine-1-carboxamide], for which the “MIC90 against SRMV2.6” value in experiment [2] was greater than 250 µM.

As to `N#Cc1cccc(C(=O)N2CCN(S(=O)(=O)c3cccc4cnccc34)CC2)c1` [Compound 16, 3-[4-(isoquinoline-5-sulfonyl)piperazine-1-carbonyl]benzonitrile], in experiment [2], the “MIC90 against SRMV2.6” value stood at 50 µM (≈ 20.3 µg/mL).

Regarding `N#Cc1ccc(C(=O)N2CCN(S(=O)(=O)c3cccc4cnccc34)CC2)cc1` [Compound 17, 4-[4-(isoquinoline-5-sulfonyl)piperazine-1-carbonyl]benzonitrile], the “MIC90 against SRMV2.6” value in experiment [2] was found to be 100 µM (≈ 40.6 µg/mL).

Regarding `O=C(Nc1cccc(Cl)c1Cl)N1CCN(S(=O)(=O)c2cccc3cnccc23)CC1` [Compound 37, N-(2,3-dichlorophenyl)-4-(isoquinolin-5-ylsulfonyl)piperazine-1-carboxamide], the “MIC90 against SRMV2.6” value in experiment [2] was greater than 250 µM.

As for `O=C(NC1CCN(S(=O)(=O)c2cccc3cnccc23)CC1)C1CCCCC1` [Compound 4, N-[1-(isoquinoline-5-sulfonyl)piperidin-4-yl]cyclohexanecarboxamide], in experiment [2], the “MIC90 against SRMV2.6” value was greater than 100 µM.

For the molecule `O=C(NCCNS(=O)(=O)c1cccc2cnccc12)C1CCC1` [Compound 10, N-{2-[(isoquinoline-5-sulfonyl)amino]ethyl}cyclobutanecarboxamide], in experiment [2], the “MIC90 against SRMV2.6” value was found to be 100 µM (≈ 33.3 µg/mL).

On to `O=C(Nc1ccc(Cl)c([N+](=O)[O-])c1)N1CCN(S(=O)(=O)c2cccc3cnccc23)CC1` [Compound 35, N-(4-chloro-3-nitrophenyl)-4-(isoquinolin-5-ylsulfonyl)piperazine-1-carboxamide], for which the “MIC90 against SRMV2.6” value in experiment [2] was greater than 100 µM.

Take `O=C(Nc1ccc2c(c1)OCO2)N1CCCN(S(=O)(=O)c2cccc3cnccc23)CC1` [Compound 44, 4-(isoquinoline-5-sulfonyl)-N-(2H-1,3-benzodioxol-5-yl)-1,4-diazepane-1-carboxamide]: the “MIC90 against SRMV2.6” value in experiment [2] is greater than 100 µM. Moreover, the “Hyper-sensitivity to guaB2 cKD” value in experiment [1] is reported as 8–16-fold.

The values are drawn from article PMC6990405, “Synthesis and Structure–Activity relationship of 1-(5-isoquinolinesulfonyl)piperazine analogues as inhibitors of Mycobacterium tuberculosis IMPDH” (European Journal of Medicinal Chemistry, 2019).
